What was measured:
GR = biological target: T1, GR (Homo sapiens, UniProt P04150); assay: In Vitro GR Luciferase Reporter Assay (antagonist mode, CHO-K1-GR-MMTV-Luc reporter cells); type: cell-based
T1 construct: expressed in transfected cells; host or cells: CHO-K1
T1 sequence (P04150 1-777): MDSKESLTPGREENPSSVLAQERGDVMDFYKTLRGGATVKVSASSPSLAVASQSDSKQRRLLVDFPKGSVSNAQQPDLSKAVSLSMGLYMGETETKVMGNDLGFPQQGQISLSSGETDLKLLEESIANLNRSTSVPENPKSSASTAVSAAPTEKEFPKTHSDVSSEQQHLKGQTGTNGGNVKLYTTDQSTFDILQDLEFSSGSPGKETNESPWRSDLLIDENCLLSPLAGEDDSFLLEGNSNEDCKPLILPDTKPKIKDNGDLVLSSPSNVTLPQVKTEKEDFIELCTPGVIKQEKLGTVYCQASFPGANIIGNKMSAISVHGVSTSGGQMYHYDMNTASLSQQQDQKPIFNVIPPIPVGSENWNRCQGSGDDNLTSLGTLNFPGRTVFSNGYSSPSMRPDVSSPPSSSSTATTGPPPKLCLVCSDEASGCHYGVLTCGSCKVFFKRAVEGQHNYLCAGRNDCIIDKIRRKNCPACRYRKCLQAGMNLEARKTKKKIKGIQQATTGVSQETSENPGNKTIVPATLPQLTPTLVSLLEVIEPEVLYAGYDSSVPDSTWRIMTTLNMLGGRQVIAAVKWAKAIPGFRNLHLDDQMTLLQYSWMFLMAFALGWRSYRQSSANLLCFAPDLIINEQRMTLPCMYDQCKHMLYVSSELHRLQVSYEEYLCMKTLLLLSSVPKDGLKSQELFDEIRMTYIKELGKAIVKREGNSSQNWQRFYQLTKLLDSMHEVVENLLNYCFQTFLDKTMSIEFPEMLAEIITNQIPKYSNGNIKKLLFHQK
How it was run: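 Antagonist mode: compounds (8 serial 1:5 dilutions) added to GR-MMTV-luciferase CHO-K1 reporter cells co-exposed to 10 nM dexamethasone final, in phenol red-free DMEM plus 10% CSS. After roughly 18-24 h at 37° C, OneGlo luminescence read and IC50 calculated.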

CYP2C8 = biological target: T2, CYP2C8 (Homo sapiens, UniProt P10632); assay: CYP Inhibition Assay (CYP2C8, human liver microsomes, paclitaxel substrate); type: in vitro ADME; details: pH 7.4; pooled human liver microsomes 0.1 mg/mL, probe substrate paclitaxel
T2 construct: Pooled human microsomes were obtained from Sekisui XenoTech, KS; tissue Sekisui XenoTech, KS; host or cells: pooled human liver microsomes
T2 sequence (P10632 1-490): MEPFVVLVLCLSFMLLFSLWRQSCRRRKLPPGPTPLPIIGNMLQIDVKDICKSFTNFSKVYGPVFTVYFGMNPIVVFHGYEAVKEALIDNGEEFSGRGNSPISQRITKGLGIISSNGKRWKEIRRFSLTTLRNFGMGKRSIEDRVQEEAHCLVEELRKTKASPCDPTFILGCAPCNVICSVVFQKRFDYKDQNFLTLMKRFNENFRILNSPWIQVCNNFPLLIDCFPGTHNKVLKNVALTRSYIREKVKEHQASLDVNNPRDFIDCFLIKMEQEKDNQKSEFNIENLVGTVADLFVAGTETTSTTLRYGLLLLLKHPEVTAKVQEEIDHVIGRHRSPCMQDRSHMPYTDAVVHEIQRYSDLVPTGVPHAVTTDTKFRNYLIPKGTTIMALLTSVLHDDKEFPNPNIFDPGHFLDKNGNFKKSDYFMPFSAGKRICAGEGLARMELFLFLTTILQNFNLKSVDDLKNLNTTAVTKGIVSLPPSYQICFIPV
Description: Example B: CYP Inhibition Assay
Objective: To assess the % inhibition of test compounds against CYP2C8 enzyme in human liver microsomes.
Pooled human microsomes were obtained from Sekisui XenoTech, KS, and were used for in vitro assessment of compound inhibitory potential of the major drug metabolizing human CYP enzymes.
Test compounds were dissolved in DMSO as 10 mM stock solutions and diluted to 200 µM in acetonitrile as working solutions. The total concentrations of DMSO and acetonitrile were 0.02% and 0.5%, respectively, in the assay.
The assay was performed in duplicate in a 96-well plate. The reaction mixture ([…]) containing a final concentration of 0.1 mg/mL pooled human liver microsomes, 50 mM potassium phosphate, pH 7.4 buffer, was re-warmed at 37° C. for 5 minutes. The reaction was initiated with NADPH solution which was at 1 mM final concentration, and carried out for 5 minutes at 37° C. It was terminated by the addition of 3-fold volume of quench solution (1:1 acetonitrile:methanol with 0.1% formic acid and the internal standard of tolbutamide). The sample was vortexed, centrifuged at 4,000 rpm for 15 min at 4° C. The incubation in the presence of vehicle (0.02% DMSO and 0.5% acetonitrile) was used as the enzyme activity control. The analyses of metabolite 6α-hydroxypaclitaxel in supernatant was performed with LC-MS/MS method (Sciex API 4500 Qtrap coupled to a Shimadzu LC-20AD HPLC).
The CYP enzyme activity was determined based on the formation of 6a-hydroxypaclitaxel metabolite. The % inhibition was calculated using this equation: % Inhibition=100×(1−Ainactivator/Avehicle), where Ainactivator is the CYP enzyme activity in the presence of test compound, and Avehicle is the CYP activity in the presence of vehicle.

[1] = antagonist mode, 10 nM Dexamethasone
[2] = antagonist assay with 10 nM Dexamethasone, 18-24 hours

Row | IC50 (GR; [1]) | inhibition at 5 min (CYP2C8) | IC50 (GR; [2]) | Structure (SMILES)
1 | ≤ 100 nM | ≤ 25% | – | Cn1cnc(S(=O)(=O)[C@H]2CCC3=Cc4c(cnn4-c4ccc(F)cc4)C[C@]3(C(=O)c3ccc(C(F)(F)F)cn3)C2)n1 [Example 374, ((4aS,6S)-1-(4-fluorophenyl)-6-((1-methyl-1H-1,2,4-triazol-3-yl)sulfonyl)-1,4,5,6,7,8-hexahydro-4aH-benzo[f]indazol-4a-yl)(5-(trifluoromethyl)pyridin-2-yl)methanone]
2 | ≤ 100 nM | 75 to 90% | – | CC(C)N([C@H]1CCC2=Cc3c(cnn3-c3ccc(F)cc3)C[C@]2(C(=O)c2cc(C(F)(F)F)ccn2)C1)S(=O)(=O)c1cn(C)nn1 [Example 286, N-((4aS,6S)-1-(4-fluorophenyl)-4a-(4-(trifluoromethyl)picolinoyl)-4,4a,5,6,7,8-hexahydro-1H-benzo[f]indazol-6-yl)-N-isopropyl-1-methyl-1H-1,2,3-triazole-4-sulfonamide]
3 | ≤ 100 nM | ≤ 25% | – | Cn1cnc(S(=O)(=O)N(CC(F)(F)F)[C@H]2CCC3=Cc4c(cnn4-c4ccc(F)cc4)C[C@]3(C(=O)c3ncc(C(F)(F)F)s3)C2)c1 [Example 293, N-((4aS,6S)-1-(4-fluorophenyl)-4a-(5-(trifluoromethyl)thiazole-2-carbonyl)-4,4a,5,6,7,8-hexahydro-1H-benzo[f]indazol-6-yl)-1-methyl-N-(2,2,2-trifluoroethyl)-1H-imidazole-4-sulfonamide]
4 | ≤ 100 nM | 50 to 75% | – | CC(C)N([C@H]1CCC2=Cc3c(cnn3-c3ccc(F)cc3)C[C@]2(C(=O)c2cc(Cl)ccn2)C1)S(=O)(=O)c1cn(C)nn1 [Example 296, N-((4aS,6S)-4a-(4-chloropicolinoyl)-1-(4-fluorophenyl)-4,4a,5,6,7,8-hexahydro-1H-benzo[f]indazol-6-yl)-N-isopropyl-1-methyl-1H-1,2,3-triazole-4-sulfonamide]
5 | ≤ 100 nM | – | – | CO[C@]1(C)C[C@H](N([C@H]2CCC3=Cc4c(cnn4-c4ccc(F)cc4)C[C@]3(C(=O)c3cc(C(F)(F)F)ccn3)C2)S(=O)(=O)c2ccn(C)n2)C1 [Example 384, N-((4aS,6S)-1-(4-fluorophenyl)-4a-(4-(trifluoromethyl)picolinoyl)-4,4a,5,6,7,8-hexahydro-1H-benzo[f]indazol-6-yl)-N-((1s,3R)-3-methoxy-3-methylcyclobutyl)-1-methyl-1H-pyrazole-3-sulfonamide]
6 | ≤ 100 nM | – | – | Cn1ccc(S(=O)(=O)CC2CCC3=Cc4c(cnn4-c4ccc(F)cc4)C[C@]3(C(=O)c3cc(C(F)(F)F)ccn3)C2)n1 (stereo partly drawn) [Example 353, ((4aR)-1-(4-fluorophenyl)-6-(((1-methyl-1H-pyrazol-3-yl)sulfonyl)methyl)-1,4,5,6,7,8-hexahydro-4aH-benzo[f]indazol-4a-yl)(4-(trifluoromethyl)pyridin-2-yl)methanone]

Second part, the compound before the results:

Row | Structure (SMILES) | IC50 (GR; [1]) | inhibition at 5 min (CYP2C8) | IC50 (GR; [2])
7 | CCN([C@H]1CCC2=Cc3c(cnn3-c3ccc(F)cc3)C[C@]2(C(=O)c2ncc(C(F)(F)F)s2)C1)S(=O)(=O)c1ccn(C)n1 [Example 199, N-ethyl-N-((4aS,6S)-1-(4-fluorophenyl)-4a-(5-(trifluoromethyl)thiazole-2-carbonyl)-4,4a,5,6,7,8-hexahydro-1H-benzo[f]indazol-6-yl)-1-methyl-1H-pyrazole-3-sulfonamide] | ≤ 100 nM | 75 to 90% | –
8 | CN([C@H]1CCC2=Cc3c(cnn3-c3ccc(F)cc3)C[C@]2(C(=O)c2cc(C(F)(F)F)ccn2)C1)S(=O)(=O)c1ccnn1C [Example 156, N-((4aS,6S)-1-(4-fluorophenyl)-4a-(4-(trifluoromethyl)picolinoyl)-4,4a,5,6,7,8-hexahydro-1H-benzo[f]indazol-6-yl)-N,1-dimethyl-1H-pyrazole-5-sulfonamide] | ≤ 100 nM | 75 to 90% | –
9 | CC(C)N([C@H]1CCC2=Cc3c(cnn3-c3ccc(F)cc3)C[C@]2(C(=O)c2cc(C(F)(F)F)ccn2)C1)S(=O)(=O)c1ccc(Cl)nc1 [Example 279, 6-chloro-N-((4aS,6S)-1-(4-fluorophenyl)-4a-(4-(trifluoromethyl)picolinoyl)-4,4a,5,6,7,8-hexahydro-1H-benzo[f]indazol-6-yl)-N-isopropylpyridine-3-sulfonamide] | ≤ 100 nM | 50 to 75% | –
10 | Cn1ccc(S(=O)(=O)N(C2CCC2)[C@H]2CCC3=Cc4c(cnn4-c4ccc(F)cc4)C[C@]3(C(=O)c3ncc(C(F)(F)F)s3)C2)n1 [Example 203, N-cyclobutyl-N-((4aS,6S)-1-(4-fluorophenyl)-4a-(5 (trifluoromethyl)thiazole-2-carbonyl)-4,4a,5,6,7,8-hexahydro-1H-benzo[f]indazol-6-yl)-1-methyl-1H-pyrazole-3-sulfonamide] | ≤ 100 nM | 25 to 50% | –
11 | CN([C@H]1CCC2=Cc3c(cnn3-c3ccc(F)cc3)C[C@]2(C(=O)c2ccc(C3CC3)cn2)C1)S(=O)(=O)c1cnn(C)c1 [Example 93, N-((4aS,6S)-4a-(5-cyclopropylpicolinoyl)-1-(4-fluorophenyl)-4,4a,5,6,7,8-hexahydro-1H-benzo[f]indazol-6-yl)-N,1-dimethyl-1H-pyrazole-4-sulfonamide] | – | 75 to 90% | ≤ 100 nM
12 | Cn1cnc(S(=O)(=O)N(CCF)[C@H]2CCC3=Cc4c(cnn4-c4ccc(F)cc4)C[C@]3(C(=O)c3ncc(C(F)(F)F)s3)C2)n1 [Example 112, N-(2-Fluoroethyl)-N-((4aS,6S)-1-(4-fluorophenyl)-4a-(5-(trifluoromethyl)thiazole-2-carbonyl)-4,4a,5,6,7,8-hexahydro-1H-benzo[f]indazol-6-yl)-1-methyl-1H-1,2,4-triazole-3-sulfonamide] | – | 75 to 90% | –
13 | Cc1ccc(S(=O)(=O)[C@@H]2CCC3=Cc4c(cnn4-c4ccc(F)cc4)C[C@]3(C(=O)c3nccs3)C2)cc1 [Example 9, ((4aS,6R)-1-(4-fluorophenyl)-6-tosyl-1,4,5,6,7,8-hexahydro-4aH-benzo[f]indazol-4a-yl)(thiazol-2-yl)methanone] | – | – | ≤ 100 nM
14 | O=C(c1cc(C(F)(F)F)ccn1)[C@]12Cc3cnn(-c4ccc(F)cc4)c3C=C1CC[C@H](N(C1CCC1)S(=O)(=O)c1ccn(C(F)F)n1)C2 [Example 253, N-cyclobutyl-1-(difluoromethyl)-N-((4aS,6S)-1-(4-fluorophenyl)-4a-(4-(trifluoromethyl)picolinoyl)-4,4a,5,6,7,8-hexahydro-1H-benzo[f]indazol-6-yl)-1H-pyrazole-3-sulfonamide] | ≤ 100 nM | – | –
